Key:
[1] = test system: IL-6 release from Thp1 macrophages; test: Thp1 Macrophage IL-6 Release Assay (LPS-stimulated); type: cell-based; conditions: Homo sapiens, THP-1, 18 h, 100 ng/mL LPS
From the text: Anti-inflammatory effects were further characterised by assessing the production of interleukin-6 (IL-6) by human Thp-1 derived macrophages stimulated with a pro-inflammatory stimulus bacterial lipopolysaccharide (LPS). LPS acts with a cell-surface receptor, Toll-like receptor-4 to activate the NFκB and IRF signalling pathways to produce IL-6. The reduction of IL-6 in this stimulated assay is indicative of anti-inflammatory effects with utility in the treatment of conditions in which IL-6 production is aberrant. In vitro potency of test compounds in human cells was determined by incubation with Thp1 macrophages and subsequent stimulation with an inflammatory stimulus (bacterial lipopolysaccharide (LPS)) followed by measurement of cellular interleukin-6 (IL-6) release. […] The following day, the cells were stimulated with phorbol myristic acid (PMA) at a final concentration of 200 nM to induce differentiation and maintained for 3 days. Test compounds were prepared as […] solutions in DMSO and then serially diluted in DMSO prior to dilution in culture medium. The diluted compounds were added to the cultures 1 hour prior to stimulation with 100 ng/mL LPS. Compounds were tested in triplicate in a 9 point concentration response curve at concentrations of 30, 10, 3, 1, 0.3, 0.1, 0.03, 0.01 and 0.001 μM Following an 18 hour incubation at 37° C./5% CO2, the cell culture medium was collected and assayed for human IL-6 levels using the human IL-6 duo-set ELISA kit (R&D Systems). The average results for each test compound (n=3) were expressed as a percent (%) of the average control value. The average values across the concentrations tested were then plotted and the IC50 for the inhibition of IL-6 was calculated by fitting the data to a 4-parameter IC50 equation using GraphPad Prism software for Windows (Graph Pad Software, San Diego Calif. USA) or Grafit version 5 (Erithacus Software). Each experiment was repeated twice and the data are presented as the mean IC50 from both experiments.

[2] = biological target: T1, CYP1A2 (Homo sapiens, UniProt P05177); test: Human Cytochrome P450 Inhibition Assay (Bactosomes), CYP1A2; type: in vitro ADME; conditions: recombinant Bactosomes, probe substrate, 10 minutes at 37° C.
T1 construct: purchased Cypex Ltd, Dundee, Scotland UK
T1 sequence (P05177 1-516): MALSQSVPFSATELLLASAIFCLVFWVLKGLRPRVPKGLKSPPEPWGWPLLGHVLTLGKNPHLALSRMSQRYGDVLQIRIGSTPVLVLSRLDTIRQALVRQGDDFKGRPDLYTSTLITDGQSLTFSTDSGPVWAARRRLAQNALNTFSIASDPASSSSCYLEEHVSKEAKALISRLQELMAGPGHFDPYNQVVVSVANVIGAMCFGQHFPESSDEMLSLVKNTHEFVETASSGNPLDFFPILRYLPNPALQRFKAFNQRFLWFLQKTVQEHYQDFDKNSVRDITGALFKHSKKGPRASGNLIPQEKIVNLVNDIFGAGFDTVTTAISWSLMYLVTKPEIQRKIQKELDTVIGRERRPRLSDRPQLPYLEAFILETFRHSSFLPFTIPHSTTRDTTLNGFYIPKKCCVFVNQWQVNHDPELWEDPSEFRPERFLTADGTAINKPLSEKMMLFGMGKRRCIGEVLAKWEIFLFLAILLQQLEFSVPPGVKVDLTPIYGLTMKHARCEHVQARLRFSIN
Protocol: The ability of test compounds to inhibit five of the most relevant cytochrome P450 enzymes was measured by determination of the activity of cytochrome P450 enzymes in recombinant cytochrome preparations, called Bactosomes (Cypex Ltd, Dundee, Scotland UK DD2 1NH), in the presence of a specific probe substrate. Bactosomes are a highly efficient and cost-effective source of recombinant CYP450s which have a higher specific activity of enzyme compared to other sources, such as liver microsomes. […] The following CYP450 isoforms were assayed: CYP1A2, CYP2C9, CYP2C19, CYP2D6 and CYP3A4. The study of CYP450 inhibition potential in Bactosomes is accepted as a valuable model permitting rapid prediction of potential drug-drug interactions in vivo (see, e.g., Weaver et al., 2003).
Bactosomes were obtained from a commercial source (Cypex, Scotland, UK). Test compounds were incubated with Bactosomes at 6 concentrations. Samples were incubated for 10 minutes, after which the reaction was stopped and the samples analysed by LC-MS/MS Multiple Reaction Monitoring (MRM) for the presence/amount of substrate probe.
CYP450 enzymes (final protein 75 pmol/mL for CYP1A2; 12.5 pmol/mL for CYP2C19; and 25 pmol/mL for CYP2C9, 2D6 and 3A4), 0.1 M phosphate buffer pH 7.4, probe and test compound (final concentration 50, 15.8, 5, 1.58, 0.5 and 0.158 μM; diluted from 10 mM stock solution to give a final DMSO concentration of 1%) were pre-incubated at 37° C. for 5 minutes. The reaction was initiated by the addition of 20 μL of 10 mM NADPH in phosphate buffer. The final incubation volume was 200 μL. The following control inhibitors were used for each CYP450 inhibition assay: CYP1A2: α-naphthoflavone; CYP2C9: sulfaphenazole; CYP2C19: tranylcypromine; CYP2D6: quinidine; CYP3A4: ketoconazole.
Each compound was incubated for 10 minutes at 37° C. The reactions were stopped by the addition of methanol (final composition 1:1, aqueous: methanol). The incubation plates were shaken, chilled at […] for 2 hours, and centrifuged at 3500 rpm for 15 minutes at 4° C. to precipitate the protein.
IC50 values were determined by linear transformation within Microsoft Excel.

[3] = footnote (1): Thp1 cells plated at 3 × 10^5 cells/well, Grafit
[4] = footnote (2): Thp1 cells plated at 1.7 × 10^5 cells/well, GraphPad Prism

IC50 [1, 3] [nM] | IC50 [1, 4] [nM] | IC50 [2] [µM] | SMILES
70 | 190 | > 25 | O=S(=O)(N[C@H]1CC[C@H](O)CC1)c1ccc(-c2ccc(F)cc2F)cc1 [ABD599, reference compound]
90 | 110 | – | C[C@]1(O)CC[C@H](NS(=O)(=O)c2ccc(-c3ccc(F)cc3F)cc2)CC1 [ABD900]
– | – | > 50 | C[C@]1(O)CC[C@H](NS(=O)(=O)c2ccc(-c3ccc(C#N)cc3)c(F)c2)CC1 [HMC-C-07-A, 4′-Cyano-2-fluoro-N-((1r,4r)-4-hydroxy-4-methylcyclohexyl)-[1,1′-biphenyl]-4-sulfonamide]
– | 160 | 27 | C[C@]1(O)CC[C@H](NS(=O)(=O)c2ccc(-c3ccc(Cl)cc3C#N)c(F)c2)CC1 [HMC-C-08-A, 4′-Chloro-2′-cyano-2-fluoro-N-((1r,4r)-4-hydroxy-4-methylcyclohexyl)-[1,1′-biphenyl]-4-sulfonamide]
– | 170 | 23 | C[C@]1(O)CC[C@H](NS(=O)(=O)c2ccc(-c3ccc(C#N)cc3Cl)cc2)CC1 [HMC-C-09-A, 2′-Chloro-4′-cyano-N-((1r,4r)-4-hydroxy-4-methylcyclohexyl)-[1,1′-biphenyl]-4-sulfonamide]
– | 550 | > 16 | C[C@]1(O)CC[C@@H](NS(=O)(=O)c2ccc(-c3cc(F)c(F)cc3F)cc2)CC1 [HMC-C-10-B, 2′,4′,5′-Trifluoro-N-((1s,4s)-4-hydroxy-4-methylcyclohexyl)-[1,1′-biphenyl]-4-sulfonamide]
– | 260 | 11 | C[C@]1(O)CC[C@H](NS(=O)(=O)c2ccc(-c3ccc(Cl)cc3C#N)c(Cl)c2)CC1 [HMC-C-11-A, 2,4′-Dichloro-2′-cyano-N-((1r,4r)-4-hydroxy-4-methylcyclohexyl)-[1,1′-biphenyl]-4-sulfonamide]
– | 300 | 36 | C[C@]1(O)CC[C@H](NS(=O)(=O)c2ccc(-c3ncc(Cl)cc3C#N)cc2)CC1 [HMC-N-05-A, 4-(5-Chloro-3-cyanopyridin-2-yl)-N-((1r,4r)-4-hydroxy-4-methylcyclohexyl)benzenesulfonamide]

SMILES | IC50 [1, 3] [nM] | IC50 [1, 4] [nM] | IC50 [2] [µM]
Cc1cc(S(=O)(=O)N[C@H]2CC[C@H](O)CC2)ccc1-c1ccc(F)cc1F [ABD735, reference compound] | – | – | > 25
C[C@]1(O)CC[C@@H](NS(=O)(=O)c2ccc(-c3ccc(F)cc3F)cc2)CC1 [ABD899, reference compound] | 30 | 40 | > 25
C[C@]1(O)CC[C@@H](NS(=O)(=O)c2ccc(-c3ccc(C#N)cc3)c(F)c2)CC1 [HMC-C-07-B, 4′-Cyano-2-fluoro-N-((1s,4s)-4-hydroxy-4-methylcyclohexyl)-[1,1′-biphenyl]-4-sulfonamide] | – | 18 | > 50

From patent US10005733B2, “N-(4-hydroxy-4-methyl-cyclohexyl)-4-phenyl-benzenesulfonamide and N-(4-hydroxy-4-methyl-cyclohexyl)-4-(2-pyridyl)-benzenesulfonamide compounds and their therapeutic use” (PIMCO 2664 LIMITED, priority 2014, dated 2018)
